# Results published in ChEMBL document CHEMBL1139896, “Synthesis, characterization, and estrogen receptor binding affinity of flavone-, indole-, and furan-estradiol conjugates” (Bioorg Med Chem Lett, 2007).
# Target: T1, Estrogen receptor (Homo sapiens, UniProt P03372)
# T1 sequence (P03372 whole entry): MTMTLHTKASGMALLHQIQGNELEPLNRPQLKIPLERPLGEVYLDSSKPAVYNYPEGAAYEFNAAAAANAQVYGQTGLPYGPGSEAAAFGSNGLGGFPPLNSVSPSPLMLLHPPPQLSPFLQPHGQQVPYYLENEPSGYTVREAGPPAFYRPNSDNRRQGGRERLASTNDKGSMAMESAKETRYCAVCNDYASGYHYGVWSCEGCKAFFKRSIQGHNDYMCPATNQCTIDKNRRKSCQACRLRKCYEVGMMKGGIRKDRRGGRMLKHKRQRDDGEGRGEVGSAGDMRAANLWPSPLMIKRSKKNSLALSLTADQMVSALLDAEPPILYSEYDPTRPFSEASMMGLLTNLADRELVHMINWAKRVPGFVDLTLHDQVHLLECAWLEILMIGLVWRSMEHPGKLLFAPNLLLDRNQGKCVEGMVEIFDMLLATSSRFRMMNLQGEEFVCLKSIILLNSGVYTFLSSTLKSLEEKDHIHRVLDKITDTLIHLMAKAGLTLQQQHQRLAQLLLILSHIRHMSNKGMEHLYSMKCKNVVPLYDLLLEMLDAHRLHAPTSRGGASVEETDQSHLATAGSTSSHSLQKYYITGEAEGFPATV
# Description: Binding affinity to ERalpha
row,Compound,Ki
1,COc1ccccc1-c1[nH]c2ccccc2c1C#C[C@]1(O)CC[C@H]2[C@@H]3CCc4cc(O)ccc4[C@H]3CC[C@@]21C,35 nM
2,C[C@]12CC[C@@H]3c4ccc(O)cc4CC[C@H]3[C@@H]1CC[C@@]2(O)C#CCCCCC#Cc1cccc2c(=O)cc(-c3ccccc3)oc12,382 nM
3,C[C@]12CC[C@@H]3c4ccc(O)cc4CC[C@H]3[C@@H]1CC[C@@]2(O)C#Cc1c(-c2ccccc2)oc2ccccc2c1=O,37 nM
4,C[C@]12CC[C@@H]3c4ccc(O)cc4CC[C@H]3[C@@H]1CC[C@@]2(O)C#CCCCCC#Cc1c(-c2ccccc2)oc2ccccc2c1=O,63100 nM

# The next lines start with the values.
row,Ki,Compound
1,17900 nM,Cc1ccc(S(=O)(=O)Oc2ccc3c(C#CCCCCC#C[C@]4(O)CC[C@H]5[C@@H]6CCc7cc(O)ccc7[C@H]6CC[C@@]54C)c(-c4ccc(OCc5ccccc5)cc4)oc3c2)cc1
2,75 nM,C[C@]12CC[C@@H]3c4ccc(O)cc4CC[C@H]3[C@@H]1CC[C@@]2(O)C#Cc1c(-c2ccccc2O)[nH]c2ccccc12
3,332 nM,Cc1ccc(S(=O)(=O)Oc2ccc3c(C#C[C@]4(O)CC[C@H]5[C@@H]6CCc7cc(O)ccc7[C@H]6CC[C@@]54C)c(-c4ccc(OCc5ccccc5)cc4)oc3c2)cc1
4,100 nM,C[C@]12CC[C@@H]3c4ccc(O)cc4CC[C@H]3[C@@H]1CC[C@@]2(O)C#Cc1cccc2c(=O)cc(-c3ccccc3)oc12
